We go through eleven molecules from ChEMBL document CHEMBL4823329, “Trisubstituted 1,3,5-Triazines: The First Ligands of the sY12-Binding Pocket on Chemokine CXCL12” (ACS Med Chem Lett, 2021).

For the first test, the target named is Stromal cell-derived factor 1 (Homo sapiens, UniProt P48061). The experiment in a line: Binding affinity to wild type CXCL12 (unknown origin) by NMR spectroscopy.
Chain of Stromal cell-derived factor 1 (P48061 whole entry): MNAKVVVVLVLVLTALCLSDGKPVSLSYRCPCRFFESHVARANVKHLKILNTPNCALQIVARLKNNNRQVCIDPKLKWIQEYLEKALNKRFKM
Conditions: not given; call rule not given here
As for `O=C(O)CSc1nc(SCC(=O)O)nc(-c2c3ccccc3cc3ccccc23)n1`, the Kd (as a rule, the free concentration of one partner at which half of the binding sites on the other are occupied at equilibrium, for simple one-to-one binding) is given as “Not Active”. Same read-out and setting: in the case of `O=C(O)CSc1nc(SCC(=O)O)nc(C2=CCCCC2)n1` it was “Nd(Insoluble)”; in that of `O=C(O)CSc1nc(SCC(=O)O)nc(-c2ccc(-c3ccccc3)cc2)n1`, “Nd(Insoluble)”. In the case of `O=C(O)c1ccc(Nc2nc(Nc3ccc(C(=O)O)cc3)nc(-c3ccccc3)n2)cc1`, the Kd result was “Nd(Insoluble)”. Same read-out and setting: in the case of `O=C(O)CSc1nc(SCC(=O)O)nc(-c2ccc(Oc3ccccc3)cc2)n1` it was “Nd(Insoluble)”; in that of `O=C(O)CSc1nc(SCC(=O)O)nc(-c2cnc3ccccc3c2)n1`, “Nd(Insoluble)”; in that of `O=C(O)CSc1nc(SCC(=O)O)nc(C2C3CC4CC(C3)CC2C4)n1` (stereo unspecified), “Not Active”.

Consider `O=C(O)CSc1nc(SCC(=O)O)nc(-c2ccoc2)n1`, for which the Kd entry is “Nd(Insoluble)”.

Staying with this test, now noted: read-out: Kd.
As for `C[N+]1(c2nc(SCC(=O)O)nc(SCC(=O)O)n2)CCOCC1`, the Kd came to 3020 µM. Same read-out and setting: in the case of `O=C(O)CSc1nc(SCC(=O)O)nc(-c2ccc(N3CCOCC3)cc2)n1` it was 306 µM. Same read-out and setting: in the case of `O=C(O)CSc1nc(SCC(=O)O)nc(N2CCOCC2)n1` it was 234 µM.
